Test results from patent US20220363727A1, “ANTIBACTERIAL PEPTIDE DERIVED FROM ERYTHROCULTER ILISHAEFORMIS AND USE THEREOF” (SOOCHOW UNIVERSITY, priority 2020, published 2022).
Values after ≈ are worked out from the molar mass of the structure shown. Like-named read-outs stand apart in the source and are kept apart here. Bridge positions count the residues as written; N and C are the ends. Ends that are not written are not given here.

Columns and labels:
Format in all cases: cell-based
V. parahaemolyticus = test: Checkerboard test for synergy of LEAP-2 and ampicillin; conditions: Vibrio parahaemolyticus; for MIC used in combination: ampicillin and LEAP-2 used in combination
Description: (§1) 50 μL was added to each well, and uniformly mixed. […] 100 μL of bacterial solution was added to each well.

V. harveyi = test: as above; conditions: Vibrio harveyi; for MIC used in combination: ampicillin and LEAP-2 used in combination
Description: as §1

Vibrio harveyi = test: microbe, parasite or virus in culture
Description: (§2) The antibacterial activity of LEAP-2 from Erythroculter ilishaeformis (having the amino acid sequence as shown in SEQ ID NO: 1) against fish pathogens was tested by a two-fold dilution method. […] Aeromonas sobria, Aeromonas hydrophila, Vibrio harveyi, Vibrio parahaemolyticus, Vibrio anguillarum, Vibrio vulnificus, Vibrio splendidus and Vibrio cholerae were cultured in a nutrient broth medium to the logarithmic phase, and then diluted with fresh nutrient broth medium to 10^5 CFU/mL. Then, 50 μL of diluted bacterial solution was added to each well of the 96-well plate containing the prepared two-fold dilution of LEAP-2 from Erythroculter ilishaeformis. After culturing at 37° C. for 18 hours, the minimal inhibitory concentration (MIC) was measured.

Vibrio splendidus = test: microbe, parasite or virus in culture
Description: as §2

Vibrio vulnificus = test: microbe, parasite or virus in culture
Description: as §2

Vibrio anguillarum = test: microbe, parasite or virus in culture
Description: as §2

Vibrio parahaemolyticus = test: microbe, parasite or virus in culture
Description: as §2

Aeromonas hydrophila = test: microbe, parasite or virus in culture
Description: as §2

Aeromonas sobria = test: microbe, parasite or virus in culture
Description: as §2

Vibrio cholerae = test: MIC by two-fold dilution method
Description: as §2

[1] = tested on: Aeromonas hydrophila (penicillin-resistant strain); test: Kinetic analysis of antibacterial action (CFU counts over time); conditions: for Number of bacteria co-cultured with sample: LEAP-2 5×MIC 93.75 μg/mL
Description: Aeromonas hydrophila (penicillin-resistant strain) was cultured to the logarithmic phase and diluted with fresh nutrient broth medium to 10^5 CFU/mL. […] At each time point, 50 μL of bacterial solution was taken and diluted 1000 times with nutrient broth medium. Then 50 μL of the dilution was spread on a nutrient broth agarose plate. After culturing at 37° C. for 12 hours, the CFU was calculated.

Molecule: MTPLWRIMLLFKPHALCQNNYACSTGLCRYGHCSALQTILS (disulfide 17-28, 23-33) [LEAP-2]
- MIC used in combination (V. parahaemolyticus): 18.75 µg/mL
- MIC used in combination (V. harveyi): 18.75 µg/mL
- MIC (Vibrio harveyi; 18 h): 75 µg/mL
- MIC (molar, in brackets) (Vibrio harveyi; Vibrio harveyi, converted from μg/mL): (16.1 μM)
- MIC (Vibrio splendidus; 18 h): 150 µg/mL
- MIC (molar, in brackets) (Vibrio splendidus; Vibrio splendidus, converted from μg/mL): (32.2 μM)
- MIC (Vibrio vulnificus; 18 h): 37.5 µg/mL
- MIC (molar, in brackets) (Vibrio vulnificus; Vibrio vulnificus, converted from μg/mL): (8.1 μM)
- MIC (Vibrio anguillarum; 18 h): 150 µg/mL
- MIC (molar, in brackets) (Vibrio anguillarum; Vibrio anguillarum, converted from μg/mL): (32.2 μM)
- MIC (Vibrio parahaemolyticus; 18 h): 75 µg/mL
- MIC (molar, in brackets) (Vibrio parahaemolyticus; Vibrio parahaemolyticus, converted from μg/mL): (16.1 μM)
- MIC (Aeromonas hydrophila; 18 h): 18.75 µg/mL
- MIC (molar, in brackets) (Aeromonas hydrophila; Aeromonas hydrophila, converted from μg/mL): (4.0 μM)
- MIC (Aeromonas sobria; 18 h): 75 µg/mL
- MIC (molar, in brackets) (Aeromonas sobria; Aeromonas sobria, converted from μg/mL): (16.1 μM)
- MIC (molar, in brackets) (Vibrio cholerae; converted from μg/mL): (8.1 μM)
- Number of bacteria co-cultured with sample ([1]; 0 min, ampicillin 1 mg/mL): 65 ± 5.3 ×10^3, CFUs/mL
- time to kill all bacteria ([1]; 5×MIC, i.e., 20.2 μM): ≤ 60 min
- Number of bacteria co-cultured with sample ([1]; 10 min, ampicillin 1 mg/mL): 59 ± 7.4 ×10^3, CFUs/mL
- Number of bacteria co-cultured with sample ([1]; 20 min, ampicillin 1 mg/mL): 40 ± 8.4 ×10^3, CFUs/mL
- Number of bacteria co-cultured with sample ([1]; 30 min, ampicillin 1 mg/mL): 28 ± 5.9 ×10^3, CFUs/mL
- Number of bacteria co-cultured with sample ([1]; 45 min, ampicillin 1 mg/mL): 11 ± 3.5 ×10^3, CFUs/mL
- Number of bacteria co-cultured with sample ([1]; 60 min, ampicillin 1 mg/mL): 0 ×10^3, CFUs/mL
- Number of bacteria co-cultured with sample ([1]; 90 min, ampicillin 1 mg/mL): 0 ×10^3, CFUs/mL
- Number of bacteria co-cultured with sample ([1]; 120 min, ampicillin 1 mg/mL): 0 ×10^3, CFUs/mL
- Number of bacteria co-cultured with sample ([1]; 180 min, ampicillin 1 mg/mL): 0 ×10^3, CFUs/mL

Molecule: CC1(C)S[C@@H]2[C@H](NC(=O)[C@H](N)c3ccccc3)C(=O)N2[C@H]1C(=O)O [Ampicillin]
- MIC (V. parahaemolyticus; read-out: MIC used alone): 18.8 µg/mL
- FIC (V. parahaemolyticus; MIC in combination/MIC alone): 0.25
- MIC used in combination (V. parahaemolyticus): 4.69 µg/mL
- MIC (V. harveyi; read-out: MIC used alone): 37.5 µg/mL
- MIC used in combination (V. harveyi): 4.69 µg/mL
- MIC (Vibrio harveyi; Vibrio harveyi, 37° C., 18 hours, average of three experiments, read-out: MIC): 37.5 µg/mL (≈ 107 µM)
- MIC (Vibrio splendidus; Vibrio splendidus, 37° C., 18 hours, average of three experiments): >200 µg/mL
- MIC (Vibrio splendidus; Vibrio splendidus, 37° C., 18 hours, average of three experiments, read-out: MIC): > 200 µg/mL
- MIC (Vibrio vulnificus; Vibrio vulnificus, 37° C., 18 hours, average of three experiments): >200 µg/mL
- MIC (Vibrio vulnificus; Vibrio vulnificus, 37° C., 18 hours, average of three experiments, read-out: MIC): > 200 µg/mL
- MIC (Vibrio anguillarum; Vibrio anguillarum, 37° C., 18 hours, average of three experiments): >200 µg/mL
- MIC (Vibrio anguillarum; Vibrio anguillarum, 37° C., 18 hours, average of three experiments, read-out: MIC): > 200 µg/mL
- MIC (Vibrio parahaemolyticus; Vibrio parahaemolyticus, 37° C., 18 hours, average of three experiments, read-out: MIC): 18.8 µg/mL (≈ 53.7 µM)
- MIC (Aeromonas hydrophila; Aeromonas hydrophila, 37° C., 18 hours, average of three experiments): >200 µg/mL
- MIC (Aeromonas hydrophila; Aeromonas hydrophila, 37° C., 18 hours, average of three experiments, read-out: MIC): > 200 µg/mL
- MIC (Aeromonas sobria; Aeromonas sobria, 37° C., 18 hours, average of three experiments): >200 µg/mL
- MIC (Aeromonas sobria; Aeromonas sobria, 37° C., 18 hours, average of three experiments, read-out: MIC): > 200 µg/mL
- MIC (Vibrio cholerae; 37° C., 18 hours, average of three experiments): >200 µg/mL
- MIC (Vibrio cholerae; 18 h): > 200 µg/mL
- Number of bacteria co-cultured with sample ([1]; 0 min, ampicillin 1 mg/mL): 67 ± 7.5 ×10^3, CFUs/mL
- Number of bacteria co-cultured with sample ([1]; 10 min, ampicillin 1 mg/mL): 69 ± 8.1 ×10^3, CFUs/mL
- Number of bacteria co-cultured with sample ([1]; 20 min, ampicillin 1 mg/mL): 70 ± 7.2 ×10^3, CFUs/mL
- Number of bacteria co-cultured with sample ([1]; 30 min, ampicillin 1 mg/mL): 72 ± 6.9 ×10^3, CFUs/mL
- Number of bacteria co-cultured with sample ([1]; 45 min, ampicillin 1 mg/mL): 85 ± 6.9 ×10^3, CFUs/mL
- Number of bacteria co-cultured with sample ([1]; 90 min, ampicillin 1 mg/mL): 197 ± 12.6 ×10^3, CFUs/mL
- Number of bacteria co-cultured with sample ([1]; 120 min, ampicillin 1 mg/mL): 378 ± 41.5 ×10^3, CFUs/mL
- Number of bacteria co-cultured with sample ([1]; 180 min, ampicillin 1 mg/mL): 961 ± 87.3 ×10^3, CFUs/mL
- CFU of Aeromonas hydrophila after 180 minutes of incubation ([1]; ampicillin 1 mg/mL, 2862.0 μM, 180 minutes): 9.6×10^5 CFUs/mL
- CFU of Aeromonas hydrophila at start ([1]; ampicillin 1 mg/mL, 2862.0 μM, before incubation): 6.7×10^4 CFUs/mL
